Tested on: 282377-053-R-J1-PDC complex spheroid viability
Experiment: Anticancer human tumor 282377-053-R-J1-PDC patient-derived colon adenocarcinoma cell line growth inhibition [POLQ]
Conditions: for IC50: curve of first compound; for viability, T/C: stronger effect = lower value
How it was run: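 Three-cell-type spheroids modelling solid tumor plus stroma served as the readout system; POL inhibitors were tested individually and in combination, concentration ranges set by clinical Cmax where known.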

[1] = second compound 0.0316 µM, first compound 0.0316 µM
[2] = second compound 0.0316 µM, first compound 0.1 µM
[3] = second compound 0.0316 µM, first compound 0.316 µM
[4] = second compound 0.0316 µM, first compound 1 µM
[5] = second compound 0.0316 µM, first compound 3.16 µM
[6] = second compound 0.0316 µM, first compound 10 µM
[7] = second compound 0.1 µM, first compound 0.0316 µM
[8] = second compound 0.1 µM, first compound 0.1 µM
[9] = second compound 0.1 µM, first compound 0.316 µM
[10] = second compound 0.1 µM, first compound 1 µM
[11] = second compound 0.1 µM, first compound 3.16 µM
[12] = second compound 0.1 µM, first compound 10 µM
[13] = second compound 0.316 µM, first compound 0.0316 µM
[14] = second compound 0.316 µM, first compound 0.1 µM
[15] = second compound 0.316 µM, first compound 0.316 µM
[16] = second compound 0.316 µM, first compound 1 µM
[17] = second compound 0.316 µM, first compound 3.16 µM
[18] = second compound 0.316 µM, first compound 10 µM
[19] = second compound 1 µM, first compound 0.0316 µM
[20] = second compound 1 µM, first compound 0.1 µM
[21] = second compound 1 µM, first compound 0.316 µM
[22] = second compound 1 µM, first compound 1 µM
[23] = second compound 1 µM, first compound 3.16 µM
[24] = second compound 1 µM, first compound 10 µM
[25] = second compound 3.16 µM, first compound 0.0316 µM
[26] = second compound 3.16 µM, first compound 0.1 µM
[27] = second compound 3.16 µM, first compound 0.316 µM
[28] = second compound 3.16 µM, first compound 1 µM
[29] = second compound 3.16 µM, first compound 3.16 µM
[30] = second compound 3.16 µM, first compound 10 µM
[31] = second compound 10 µM, first compound 0.0316 µM
[32] = second compound 10 µM, first compound 0.1 µM
[33] = second compound 10 µM, first compound 0.316 µM
[34] = second compound 10 µM, first compound 1 µM
[35] = second compound 10 µM, first compound 3.16 µM
[36] = second compound 10 µM, first compound 10 µM
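Also: spheroids exposed to compounds for seven days.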
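For viability, T/C in this document: 100% = DMSO vehicle control viability.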

CCCS(=O)(=O)Nc1ccc(F)c(C(=O)c2c[nH]c3ncc(-c4ccc(Cl)cc4)cc23)c1F + Cc1cccc(N(C)C(=O)C2C(O)CCN2c2nc(C)cc(C(F)(F)F)c2C#N)c1
IC50 (second compound 0.0316 µM): > 10 µM | IC50 (second compound 0.1 µM): > 10 µM | IC50 (second compound 0.316 µM): > 10 µM | IC50 (second compound 1 µM): > 10 µM | IC50 (second compound 3.16 µM): > 10 µM | IC50 (second compound 10 µM): > 10 µM | viability, T/C [1]: 95.1% | viability, T/C [2]: 77.8% | viability, T/C [3]: 73.6% | viability, T/C [4]: 67.4% | viability, T/C [5]: 76.2% | viability, T/C [6]: 64.3% | viability, T/C [7]: 91.8% | viability, T/C [8]: 88.4% | viability, T/C [9]: 66.3% | viability, T/C [10]: 73.2% | viability, T/C [11]: 75.7% | viability, T/C [12]: 69.7% | viability, T/C [13]: 92.5% | viability, T/C [14]: 85.6% | viability, T/C [15]: 73% | viability, T/C [16]: 77.5% | viability, T/C [17]: 70% | viability, T/C [18]: 61.8% | viability, T/C [19]: 86.9% | viability, T/C [20]: 91.9% | viability, T/C [21]: 90.5% | viability, T/C [22]: 70.3% | viability, T/C [23]: 68% | viability, T/C [24]: 61.4% | viability, T/C [25]: 92.1% | viability, T/C [26]: 92.9% | viability, T/C [27]: 72.1% | viability, T/C [28]: 64.3% | viability, T/C [29]: 61.5% | viability, T/C [30]: 65% | viability, T/C [31]: 81.6% | viability, T/C [32]: 81.2% | viability, T/C [33]: 77.1% | viability, T/C [34]: 62.8% | viability, T/C [35]: 73.5% | viability, T/C [36]: 58.4%

COc1ccc([C@@H](O)c2cc(-c3ncnc4cc(N5CCOCC5)ccc34)c(F)cc2Cl)nn1 + Cc1cccc(N(C)C(=O)C2C(O)CCN2c2nc(C)cc(C(F)(F)F)c2C#N)c1
IC50 (second compound 0.0316 µM): > 10 µM | IC50 (second compound 0.1 µM): > 10 µM | IC50 (second compound 0.316 µM): > 10 µM | IC50 (second compound 1 µM): > 10 µM | IC50 (second compound 3.16 µM): > 10 µM | IC50 (second compound 10 µM): > 10 µM | viability, T/C [1]: 104% | viability, T/C [2]: 115% | viability, T/C [3]: 108% | viability, T/C [4]: 103% | viability, T/C [5]: 78.3% | viability, T/C [6]: 62.4% | viability, T/C [7]: 106% | viability, T/C [8]: 106% | viability, T/C [9]: 89.1% | viability, T/C [10]: 110% | viability, T/C [11]: 72.2% | viability, T/C [12]: 75.1% | viability, T/C [13]: 110% | viability, T/C [14]: 90% | viability, T/C [15]: 97.6% | viability, T/C [16]: 93.1% | viability, T/C [17]: 102% | viability, T/C [18]: 62.2% | viability, T/C [19]: 111% | viability, T/C [20]: 80.1% | viability, T/C [21]: 97.7% | viability, T/C [22]: 83.2% | viability, T/C [23]: 103% | viability, T/C [24]: 53.1% | viability, T/C [25]: 122% | viability, T/C [26]: 98.9% | viability, T/C [27]: 108% | viability, T/C [28]: 87.8% | viability, T/C [29]: 101% | viability, T/C [30]: 68.5% | viability, T/C [31]: 87.9% | viability, T/C [32]: 87.6% | viability, T/C [33]: 109% | viability, T/C [34]: 76.6% | viability, T/C [35]: 64.3% | viability, T/C [36]: 54.3%

Cn1ncnc1[C@H]1c2n[nH]c(=O)c3cc(F)cc(c23)N[C@@H]1c1ccc(F)cc1 + Cc1cccc(N(C)C(=O)C2C(O)CCN2c2nc(C)cc(C(F)(F)F)c2C#N)c1
IC50 (second compound 0.0316 µM): > 0.1 µM | IC50 (second compound 0.1 µM): > 0.1 µM | IC50 (second compound 0.316 µM): > 0.1 µM | IC50 (second compound 1 µM): > 0.1 µM | IC50 (second compound 3.16 µM): > 0.1 µM | IC50 (second compound 10 µM): > 0.1 µM | viability, T/C (second compound 0.0316 µM, first compound 0.000316 µM): 111% | viability, T/C (second compound 0.0316 µM, first compound 0.001 µM): 86.9% | viability, T/C (second compound 0.0316 µM, first compound 0.00316 µM): 105% | viability, T/C (second compound 0.0316 µM, first compound 0.01 µM): 128% | viability, T/C [1]: 98.3% | viability, T/C [2]: 89.3% | viability, T/C (second compound 0.1 µM, first compound 0.000316 µM): 125% | viability, T/C (second compound 0.1 µM, first compound 0.001 µM): 125% | viability, T/C (second compound 0.1 µM, first compound 0.00316 µM): 102% | viability, T/C (second compound 0.1 µM, first compound 0.01 µM): 128% | viability, T/C [7]: 91.8% | viability, T/C [8]: 100% | viability, T/C (second compound 0.316 µM, first compound 0.000316 µM): 95.9% | viability, T/C (second compound 0.316 µM, first compound 0.001 µM): 114% | viability, T/C (second compound 0.316 µM, first compound 0.00316 µM): 98.2% | viability, T/C (second compound 0.316 µM, first compound 0.01 µM): 93.5% | viability, T/C [13]: 111% | viability, T/C [14]: 95.5% | viability, T/C (second compound 1 µM, first compound 0.000316 µM): 116% | viability, T/C (second compound 1 µM, first compound 0.001 µM): 110% | viability, T/C (second compound 1 µM, first compound 0.00316 µM): 89% | viability, T/C (second compound 1 µM, first compound 0.01 µM): 102% | viability, T/C [19]: 119% | viability, T/C [20]: 91.6% | viability, T/C (second compound 3.16 µM, first compound 0.000316 µM): 106% | viability, T/C (second compound 3.16 µM, first compound 0.001 µM): 130% | viability, T/C (second compound 3.16 µM, first compound 0.00316 µM): 82.9% | viability, T/C (second compound 3.16 µM, first compound 0.01 µM): 115% | viability, T/C [25]: 88.5% | viability, T/C [26]: 112% | viability, T/C (second compound 10 µM, first compound 0.000316 µM): 105% | viability, T/C (second compound 10 µM, first compound 0.001 µM): 102% | viability, T/C (second compound 10 µM, first compound 0.00316 µM): 105% | viability, T/C (second compound 10 µM, first compound 0.01 µM): 82.7% | viability, T/C [31]: 81.5% | viability, T/C [32]: 100%

— PubChem BioAssay AID1963852 (Molecular Pharmacology Branch, DTP, NCI, 2024)
